Experimental data from article PMC7958344, “Development of Novel Inhibitors Targeting the D-Box of the DNA Binding Domain of Androgen Receptor” (International Journal of Molecular Sciences, 2021).
Positions count from the first letter of the chain named. Where two headings read alike, the source gives them in different places.

Key:
AR-V7 = target: T1, AR-V7 (Homo sapiens, UniProt P10275); assay: AR-V7 transcriptional activity, doxycycline-inducible AR-V7 with ARR3tk-nanoLuciferase reporter in PC3 cells; assay type: cell-based; conditions: for IC50: PC3 doxycycline-inducible AR-V7, ARR3tk-nanoLuciferase reporter, read-out: IC50 for the inhibition of the AR-V7 transcription; for inhibition at 10 µM: PC-3, Supplementary Table 1, read-out: Inhibition Dox-V7 (10 μM)
T1 construct: expressed in transfected cells
T1 sequence (P10275 1-644 isoform P10275-3): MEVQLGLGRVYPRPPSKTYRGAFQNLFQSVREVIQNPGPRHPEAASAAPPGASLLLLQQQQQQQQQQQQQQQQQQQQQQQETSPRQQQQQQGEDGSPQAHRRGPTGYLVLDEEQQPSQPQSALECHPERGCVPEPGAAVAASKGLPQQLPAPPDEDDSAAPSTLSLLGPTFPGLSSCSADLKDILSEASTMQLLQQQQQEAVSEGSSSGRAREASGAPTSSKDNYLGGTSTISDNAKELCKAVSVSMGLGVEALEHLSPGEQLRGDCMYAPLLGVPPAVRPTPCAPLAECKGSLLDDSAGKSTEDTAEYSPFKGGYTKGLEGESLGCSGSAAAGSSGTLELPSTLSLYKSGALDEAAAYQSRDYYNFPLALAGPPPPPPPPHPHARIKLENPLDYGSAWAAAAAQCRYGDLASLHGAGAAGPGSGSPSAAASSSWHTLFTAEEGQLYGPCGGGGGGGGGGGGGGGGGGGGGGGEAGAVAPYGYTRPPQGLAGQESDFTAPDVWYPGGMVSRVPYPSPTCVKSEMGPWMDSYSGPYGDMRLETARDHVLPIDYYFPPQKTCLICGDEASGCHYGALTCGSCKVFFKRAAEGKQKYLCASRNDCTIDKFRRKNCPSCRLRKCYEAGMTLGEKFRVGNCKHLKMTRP
Source text: (§1) Compounds were first screened for their inhibition of AR-V7 transcriptional activity. To do so, we created a PC3 cell-based population that stably encodes (i) a doxycycline-inducible AR-V7 cDNA sequence (pLIX402 tet-inducible promoter, puromycin selection), and (ii) the ARR3tk-nanoLuciferase reporter construct. […] This allowed the screening of the compounds without using the error-prone method of transiently transfecting V7 and reporter constructs. The inhibition efficacy of compounds was measured using doxycycline treatment along with an increasing dose of compounds. From this screen, a panel of compounds was identified with some anti-dimerization activity (Supplementary Table S1). […] To rule out direct effects of the compounds on luciferase expression or PC3 cell viability, we used a PC3-dox inducible luciferase cell line in parallel.
(§2) LNCaP cells incorporating an AR2PB-eGFP reporter construct (2 × probasin) are previously described. eGFP and secreted PSA assays were performed as described. The mammalian two-hybrid assay was performed in PC3 cells by co-transfection of 15 ng pA-AR or pB-AR plasmids, with 12.5 ng PG5-NLuc reporter. PC3_iV7_3TKNluc or PC3_iNluc cells were seeded in DMEM +5% CSS at 5000 cells/well for 24 h, followed by adding doxycycline/compounds (18 h) and luminescence measurement. LNCaP and 22rv1 cells were starved in RPMI + CSS (48 h) before cell viability tests using the same conditions as above, followed by 30 μL/well PrestoBlue™ Reagent (1 h) and fluorescence measurement (TECAN F200).

full-length AR [1] = target: T2, full-length AR (Homo sapiens, UniProt P10275, T878A); assay: eGFP AR transcriptional assay in LNCaP cells; assay type: cell-based; conditions: for eGFP FL (12 μM) / IC50: LNCaP-eGFP; for eGFP FL (12 μM): Supplementary Table 1; for inhibition of AR-FL expression at 12 μM: result in words; for IC50: read-out: estimated IC50, AR-FL transcriptional activity (eGFP)
T2 construct: endogenous in cells; host or cells: LNCaP with AR2PB-eGFP reporter
T2 sequence (P10275 1-920 T878A): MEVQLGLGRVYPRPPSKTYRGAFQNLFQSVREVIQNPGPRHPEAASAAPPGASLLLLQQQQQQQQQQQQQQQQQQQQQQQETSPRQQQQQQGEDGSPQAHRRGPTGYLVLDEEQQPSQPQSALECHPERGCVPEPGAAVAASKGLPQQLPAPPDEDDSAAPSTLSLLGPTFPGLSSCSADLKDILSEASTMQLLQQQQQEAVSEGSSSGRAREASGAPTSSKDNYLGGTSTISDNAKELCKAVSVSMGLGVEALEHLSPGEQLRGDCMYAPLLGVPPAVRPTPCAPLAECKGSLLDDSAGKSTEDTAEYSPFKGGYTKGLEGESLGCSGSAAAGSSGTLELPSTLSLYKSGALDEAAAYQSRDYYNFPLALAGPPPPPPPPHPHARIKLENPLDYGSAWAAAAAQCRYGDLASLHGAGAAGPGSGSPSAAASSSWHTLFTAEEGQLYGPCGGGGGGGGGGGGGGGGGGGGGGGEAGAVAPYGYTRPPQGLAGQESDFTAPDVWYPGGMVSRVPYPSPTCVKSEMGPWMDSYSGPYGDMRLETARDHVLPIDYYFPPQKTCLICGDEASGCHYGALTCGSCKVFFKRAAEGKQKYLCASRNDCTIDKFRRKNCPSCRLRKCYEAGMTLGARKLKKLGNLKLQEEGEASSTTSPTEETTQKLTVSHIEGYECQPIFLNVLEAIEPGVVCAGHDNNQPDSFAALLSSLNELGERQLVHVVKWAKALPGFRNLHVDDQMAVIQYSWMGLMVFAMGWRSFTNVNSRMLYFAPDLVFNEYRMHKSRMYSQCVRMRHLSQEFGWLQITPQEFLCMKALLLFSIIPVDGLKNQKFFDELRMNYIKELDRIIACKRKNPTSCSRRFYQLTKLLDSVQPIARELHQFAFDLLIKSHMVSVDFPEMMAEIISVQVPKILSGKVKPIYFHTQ
Description: In addition, these compounds were also tested for their ability to inhibit full-length AR transcriptional activity in LNCaP cells using an enhanced green fluorescent protein (eGFP) AR transcriptional assay, where the expression of eGFP is under the direct control of an androgen-responsive probasin-derived promoter.
as §2

[2] = test system: prostate-specific antigen (PSA); assay: Secreted PSA production in LNCaP cells; assay type: cell-based; conditions: Homo sapiens, read-out: IC50, secreted PSA levels
Description: To further validate compounds as AR inhibitors, we tested their activity by quantifying the effect on the production of endogenous prostate-specific antigen (PSA) in PCa cell lines. PSA is an AR-regulated serine protease and is widely used as a biomarker for PCa.
as §2

AR-LBD = target: T3, AR-LBD (Rattus norvegicus, UniProt P15207); assay: Androgen displacement assay (Polar Screen Androgen Receptor Competitor Green Assay Kit, FluormoneAL Green); assay type: binding; conditions: for % Displacement (1 μM) / % Displacement (10 μM): Table 1
T3 construct: displace a fluorescent-tagged androgenic ligand (FluormoneAL Green) from the AR-LBD; purchased
T3 sequence (P15207 651-882 limits assumed): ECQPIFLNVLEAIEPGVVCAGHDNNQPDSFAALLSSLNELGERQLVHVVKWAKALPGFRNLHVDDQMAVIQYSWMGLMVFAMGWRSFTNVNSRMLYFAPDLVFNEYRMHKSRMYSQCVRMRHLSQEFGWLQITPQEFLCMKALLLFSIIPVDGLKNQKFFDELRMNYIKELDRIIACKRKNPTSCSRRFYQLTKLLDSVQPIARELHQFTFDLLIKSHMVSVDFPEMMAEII
Description: Androgen displacement was assessed with the Polar Screen Androgen Receptor Competitor Green Assay Kit as per the instructions of the manufacturer.

full-length AR [3] = target: T4, full-length AR (Homo sapiens, UniProt P10275); assay: Mammalian two-hybrid (M2H) AR dimerization assay in PC3 cells; assay type: cell-based; conditions: result in words
T4 construct: Full-length AR cDNA were cloned using Polymerase Incomplete Primer Extension; expressed in transfected cells; host or cells: PC3 (transient co-transfection of pA-AR, pB-AR and PG5-NLuc)
T4 sequence (P10275 1-920): T2 sequence (P10275 1-920 T878A) with A878T
Description: Next, the dimerization of full-length AR was assessed by a mammalian two-hybrid (M2H, [30]) assay, where target proteins were fused with Gal4-DBD or VP16 domains. […] High concentrations of VPC-17005 (>20 μM) were required for significant reduction in AR and AR-V7 homo-dimerization.
Figure 3 Anti-dimerization effects of VPC-17160 and VPC-17281 at 20 μM concentraction. PC3 cells were co-transfected with plasmids encoding pA-AR and pB-AR and pG5-NLuc-Gal4 specific reporter. Cells were treated with 0.1% DMSO control, VPC-17160, VPC-17281, or VPC-17005 followed by Nanoluciferase measurement. p < 0.05 (*), p < 0.01 (**) were considered statistically significant (two-tailed t-test). Two-tailed t-test for VPC-17005 vs. 17160 p < 0.05; VPC-17005 vs. VPC-17281 p < 0.05.
Full-length human AR (hARWT) was encoded on pcDNA3.1 expression plasmid. […]
as §2, with “The mammalian two-hybrid assay was performed in PC3 cells by co-transfection of 15 ng pA-AR or pB-AR plasmids, with 12.5 ng PG5-NLuc reporter.” left out

LNCaP cells = assay: Cell viability (PrestoBlue), LNCaP; assay type: cell-based; conditions: for growth inhibition of LNCaP cell line: result in words
Description: (§3) VPC-17160 and VPC-17281 were further evaluated for their potential to inhibit the growth of prostate cancer cell lines LNCaP (AR-FL dependent) and 22rv1 (AR-V7 dependent).
as §2

22rv1 cells = assay: Cell viability (PrestoBlue), 22rv1; assay type: cell-based; conditions: for growth inhibition of 22rv1 cell line: result in words
Description: as §3, §2

PC3 cell line = assay: Activity in the PC3 cell line; assay type: cell-based; conditions: off-target effects; result in words
[4] = Metabolic stability in human microsomes; assay type: in vitro ADME
Source text: We then tested the metabolic stability of these molecules using human microsomes. […] This could explain the lower potency of this compound in cell growth assays, as it is metabolized quickly in the media.

[5] = test system: PC3-dox inducible luciferase cell line; assay: Nanoluc counterscreen in PC3-dox inducible luciferase cell line; assay type: cell-based; conditions: Supplementary Table 1
Source text: as §1
as §2, with “The mammalian two-hybrid assay was performed in PC3 cells by co-transfection of 15 ng pA-AR or pB-AR plasmids, with 12.5 ng PG5-NLuc reporter.” left out

[6] = microsomal stability, Table 1, read-out: Half-Life
[7] = read-out: half-life in microsomes (T1/2)

| Structure (SMILES) | IC50 (AR-V7) [µM] | inhibition at 10 µM (AR-V7) [%] | eGFP FL (12 μM) (full-length AR [1]) | inhibition of AR-FL expression at 12 μM (full-length AR [1]) | IC50 (full-length AR [1]) [µM] | IC50 [2] [µM] | % Displacement (1 μM) (AR-LBD) [%] | % Displacement (10 μM) (AR-LBD) [%] | hormone displacement at 50 μM (AR-LBD; high concentrations (50 μM), result in words) | reduction of dimerization at 20 μM (full-length AR [3]) | IC50 (LNCaP cells; Homo sapiens, LNCaP (AR-FL dependent), read-out: IC50, cell growth) [µM] | growth inhibition of LNCaP cell line (LNCaP cells) | IC50 (22rv1 cells; Homo sapiens, 22rv1 (AR-V7 dependent), read-out: IC50, cell growth) [µM] | growth inhibition of 22rv1 cell line (22rv1 cells) | effect on the PC3 cell line (PC3 cell line) | half-life [4, 6] [min] | half-life [4, 7] [min] | Nanoluc Counterscreen (10 μM) [5] [%] |
| --- | --- | --- | --- | --- | --- | --- | --- | --- | --- | --- | --- | --- | --- | --- | --- | --- | --- | --- |
| CC(O)(CNC(=O)C=Cc1ccnc2ccccc12)c1ccsc1 (stereo not shown) [VPC-17281] | 6 | 70 | 100 | significant inhibition | 5 | 6 | 0 | 0 | no significant hormone displacement | full reduction of dimerization | 25 | inhibited the growth | 10 | inhibited the growth | some activity | 90 | > 90 | 10 |
| O=C(NCc1cccc2ccccc12)NCC(O)(c1cccs1)c1cccs1 [VPC-17160] | 6 | 70 | 76 | significant inhibition | 2 | 2 | 10 | 29 | – | full reduction of dimerization | – | inhibited the growth | – | inhibited the growth | no effect | 3 | 3 | 20 |
| CNC(=O)c1ccc(N2C(=S)N(c3ccc(C#N)c(C(F)(F)F)c3)C(=O)C2(C)C)cc1F [Enzalutamide, reference compound] | – | – | – | – | – | – | – | – | – | – | – | – | – | – | – | > 1000 | – | – |
